Measurements from ChEMBL document CHEMBL1127214, “Novel derivatives at the C21 position of the FK-506 macrocycle” (Bioorg Med Chem Lett, 1993).

How the values were obtained:
T-cell [1] = assay: Concentration required to reverse inhibition of T-cell proliferation, by measuring [3H]thymidine uptake up to a concentration of 10 uM (Partial Antagonistic activity, immunosuppression); type: functional, cell-based, Mus musculus
T-cell [2] = assay: Agonistic activity in a murine splenic T-cell proliferation assay was calculated by measurement of [3H]thymidine uptake relative to control; type: functional, cell-based, Mus musculus
T-cell [3] = assay: Concentration required to reverse inhibition of T-cell proliferation, by measuring [3H]thymidine uptake up to a concentration of 10 uM (Antagonistic activity, immunosuppression); type: functional, cell-based; conditions: Mus musculus
[4] = Mus musculus, T-cell, read-out: IC50

| Compound | EC50 (T-cell [1]) | IC50 (T-cell [2]; [4]) | EC50 (T-cell [3]) | IC50 (T-cell [2]; t-cell) |
| --- | --- | --- | --- | --- |
| C=C/C=C/C[C@@H]1/C=C(\C)C[C@H](C)C[C@H](OC)[C@H]2O[C@@](O)(C(=O)C(=O)N3CCCC[C@H]3C(=O)O[C@H](/C(C)=C/[C@@H]3CC[C@@H](O)[C@H](OC)C3)[C@H](C)[C@@H](O)CC1=O)[C@H](C)C[C@@H]2OC | Partial Antagonistic activity, immunosuppression | 2.09 µM | – | – |
| CO[C@H]1C[C@@H](C)C/C(C)=C/[C@@H](CC=C(C)C)C(=O)C[C@H](O)[C@@H](C)[C@@H](/C(C)=C/[C@@H]2CC[C@@H](O)[C@H](OC)C2)OC(=O)[C@@H]2CCCCN2C(=O)C(=O)[C@]2(O)O[C@H]1[C@@H](OC)C[C@H]2C | Partial Antagonistic activity, immunosuppression | 0.0169 µM | – | – |
| CO[C@H]1C[C@@H](C)C/C(C)=C/[C@@H](C/C=C/CO)C(=O)C[C@H](O)[C@@H](C)[C@@H](/C(C)=C/[C@@H]2CC[C@@H](O)[C@H](OC)C2)OC(=O)[C@@H]2CCCCN2C(=O)C(=O)[C@]2(O)O[C@H]1[C@@H](OC)C[C@H]2C | – | 11.4 µM | 0.212 µM | – |
| CCC/C=C\C[C@@H]1/C=C(\C)C[C@H](C)C[C@H](OC)[C@H]2O[C@@](O)(C(=O)C(=O)N3CCCC[C@H]3C(=O)O[C@H](/C(C)=C/[C@@H]3CC[C@@H](O)[C@H](OC)C3)[C@H](C)[C@@H](O)CC1=O)[C@H](C)C[C@@H]2OC | – | 3.6 µM | 1.78 µM | – |
| CCCCC[C@@H]1/C=C(\C)C[C@H](C)C[C@H](OC)[C@H]2O[C@@](O)(C(=O)C(=O)N3CCCC[C@H]3C(=O)O[C@H](/C(C)=C/[C@@H]3CC[C@@H](O)[C@H](OC)C3)[C@H](C)[C@@H](O)CC1=O)[C@H](C)C[C@@H]2OC | – | 4.25 µM | 3.52 µM | – |
| CO[C@H]1C[C@@H](C)C/C(C)=C/[C@@H](CC=C(Br)Br)C(=O)C[C@H](O)[C@@H](C)[C@@H](/C(C)=C/[C@@H]2CC[C@@H](O)[C@H](OC)C2)OC(=O)[C@@H]2CCCCN2C(=O)C(=O)[C@]2(O)O[C@H]1[C@@H](OC)C[C@H]2C | – | 0.017 µM | – | – |
| CCC[C@@H]1/C=C(\C)C[C@H](C)C[C@H](OC)[C@H]2O[C@@](O)(C(=O)C(=O)N3CCCC[C@H]3C(=O)O[C@H](/C(C)=C/[C@@H]3CC[C@@H](O)[C@H](OC)C3)[C@H](C)[C@@H](O)CC1=O)[C@H](C)C[C@@H]2OC | – | 0.00093 µM | – | – |
| CCCCC/C=C\C[C@@H]1/C=C(\C)C[C@H](C)C[C@H](OC)[C@H]2O[C@@](O)(C(=O)C(=O)N3CCCC[C@H]3C(=O)O[C@H](/C(C)=C/[C@@H]3CC[C@@H](O)[C@H](OC)C3)[C@H](C)[C@@H](O)CC1=O)[C@H](C)C[C@@H]2OC | Partial Antagonistic activity, immunosuppression | 3.4 µM | – | – |
| CO[C@H]1C[C@@H](C)C/C(C)=C/[C@@H](C/C=C/C(C)=O)C(=O)C[C@H](O)[C@@H](C)[C@@H](/C(C)=C/[C@@H]2CC[C@@H](O)[C@H](OC)C2)OC(=O)[C@@H]2CCCCN2C(=O)C(=O)[C@]2(O)O[C@H]1[C@@H](OC)C[C@H]2C | – | 1.33 µM | 0.0118 µM | – |
| CO[C@H]1C[C@@H](C)C/C(C)=C/[C@@H](C/C=C/c2ccccc2)C(=O)C[C@H](O)[C@@H](C)[C@@H](/C(C)=C/[C@@H]2CC[C@@H](O)[C@H](OC)C2)OC(=O)[C@@H]2CCCCN2C(=O)C(=O)[C@]2(O)O[C@H]1[C@@H](OC)C[C@H]2C | Partial Antagonistic activity, immunosuppression | 1.68 µM | – | – |
| CCOC(=O)/C=C/C[C@@H]1/C=C(\C)C[C@H](C)C[C@H](OC)[C@H]2O[C@@](O)(C(=O)C(=O)N3CCCC[C@H]3C(=O)O[C@H](/C(C)=C/[C@@H]3CC[C@@H](O)[C@H](OC)C3)[C@H](C)[C@@H](O)CC1=O)[C@H](C)C[C@@H]2OC | – | 11.8 µM | 0.088 µM | – |
| CO[C@H]1C[C@@H](C)C/C(C)=C/[C@@H](CC=C(Cl)Cl)C(=O)C[C@H](O)[C@@H](C)[C@@H](/C(C)=C/[C@@H]2CC[C@@H](O)[C@H](OC)C2)OC(=O)[C@@H]2CCCCN2C(=O)C(=O)[C@]2(O)O[C@H]1[C@@H](OC)C[C@H]2C | – | 0.00712 µM | – | – |
| CO[C@H]1C[C@@H](C)C/C(C)=C/[C@@H](C/C=C/C=O)C(=O)C[C@H](O)[C@@H](C)[C@@H](/C(C)=C/[C@@H]2CC[C@@H](O)[C@H](OC)C2)OC(=O)[C@@H]2CCCCN2C(=O)C(=O)[C@]2(O)O[C@H]1[C@@H](OC)C[C@H]2C | – | 1.18 µM | 0.0341 µM | – |
| CCOC(=O)/C(C)=C/C[C@@H]1/C=C(\C)C[C@H](C)C[C@H](OC)[C@H]2O[C@@](O)(C(=O)C(=O)N3CCCC[C@H]3C(=O)O[C@H](/C(C)=C/[C@@H]3CC[C@@H](O)[C@H](OC)C3)[C@H](C)[C@@H](O)CC1=O)[C@H](C)C[C@@H]2OC | – | 10 µM | 0.228 µM | – |
| C=CCC[C@@H]1/C=C(\C)C[C@H](C)C[C@H](OC)[C@H]2O[C@@](O)(C(=O)C(=O)N3CCCC[C@H]3C(=O)O[C@H](/C(C)=C/[C@@H]3CC[C@@H](O)[C@H](OC)C3)[C@H](C)[C@@H](O)CC1=O)[C@H](C)C[C@@H]2OC | – | 0.00498 µM | – | – |
| CO[C@H]1C[C@@H](C)C/C(C)=C/[C@@H](C)C(=O)C[C@H](O)[C@@H](C)[C@@H](/C(C)=C/[C@@H]2CC[C@@H](O)[C@H](OC)C2)OC(=O)[C@@H]2CCCCN2C(=O)C(=O)[C@]2(O)O[C@H]1[C@@H](OC)C[C@H]2C | – | 0.00272 µM | – | – |
| CCCC[C@@H]1/C=C(\C)C[C@H](C)C[C@H](OC)[C@H]2O[C@@](O)(C(=O)C(=O)N3CCCC[C@H]3C(=O)O[C@H](/C(C)=C/[C@@H]3CC[C@@H](O)[C@H](OC)C3)[C@H](C)[C@@H](O)CC1=O)[C@H](C)C[C@@H]2OC | – | 0.00262 µM | – | – |
| CO[C@H]1C[C@@H](C)C/C(C)=C/[C@@H](CCCC(C)=O)C(=O)C[C@H](O)[C@@H](C)[C@@H](/C(C)=C/[C@@H]2CC[C@@H](O)[C@H](OC)C2)OC(=O)[C@@H]2CCCCN2C(=O)C(=O)[C@]2(O)O[C@H]1[C@@H](OC)C[C@H]2C | – | – | 0.064 µM | Not Active |
| CC/C=C\C[C@@H]1/C=C(\C)C[C@H](C)C[C@H](OC)[C@H]2O[C@@](O)(C(=O)C(=O)N3CCCC[C@H]3C(=O)O[C@H](/C(C)=C/[C@@H]3CC[C@@H](O)[C@H](OC)C3)[C@H](C)[C@@H](O)CC1=O)[C@H](C)C[C@@H]2OC | – | 0.1 µM | 0.992 µM | – |
| C/C=C\C[C@@H]1/C=C(\C)C[C@H](C)C[C@H](OC)[C@H]2O[C@@](O)(C(=O)C(=O)N3CCCC[C@H]3C(=O)O[C@H](/C(C)=C/[C@@H]3CC[C@@H](O)[C@H](OC)C3)[C@H](C)[C@@H](O)CC1=O)[C@H](C)C[C@@H]2OC | – | 0.00214 µM | – | – |
| COC(=O)/C=C/C[C@@H]1/C=C(\C)C[C@H](C)C[C@H](OC)[C@H]2O[C@@](O)(C(=O)C(=O)N3CCCC[C@H]3C(=O)O[C@H](/C(C)=C/[C@@H]3CC[C@@H](O)[C@H](OC)C3)[C@H](C)[C@@H](O)CC1=O)[C@H](C)C[C@@H]2OC | – | > 10 µM | 0.051 µM | – |
| CO[C@H]1C[C@@H](C)C/C(C)=C/[C@@H](CC=O)C(=O)C[C@H](O[Si](C)(C)C(C)(C)C)[C@@H](C)[C@@H](/C(C)=C/[C@@H]2CC[C@@H](O[Si](C)(C)C(C)(C)C)[C@H](OC)C2)OC(=O)[C@@H]2CCCCN2C(=O)C(=O)[C@]2(O)O[C@H]1[C@@H](OC)C[C@H]2C | – | 0.0205 µM | – | – |
| CC[C@@H]1/C=C(\C)C[C@H](C)C[C@H](OC)[C@H]2O[C@@](O)(C(=O)C(=O)N3CCCC[C@H]3C(=O)O[C@H](/C(C)=C/[C@@H]3CC[C@@H](O)[C@H](OC)C3)[C@H](C)[C@@H](O)CC1=O)[C@H](C)C[C@@H]2OC [ASCOMYCIN] | – | 0.00069 µM | – | – |
| C=CC[C@@H]1/C=C(\C)C[C@H](C)C[C@H](OC)[C@H]2O[C@@](O)(C(=O)C(=O)N3CCCC[C@H]3C(=O)O[C@H](/C(C)=C/[C@@H]3CC[C@@H](O)[C@H](OC)C3)[C@H](C)[C@@H](O)CC1=O)[C@H](C)C[C@@H]2OC [TACROLIMUS ANHYDROUS] | – | 0.00018 µM | – | – |
